This test has as its system human childhood brain tumor cell lines (PFSK-1). Description: Growth inhibitory activity against PFSK-1 cells (WST-8, Cell Counting Kit-8). The following applies: 3 days incubation with test compound, WST-8 OD 450/630 nm, read-out: IC50 (concentration inhibiting 50% of the cell growth). In kind it is cell-based. Here is the method:
The growth inhibitory activity against human childhood brain tumor cell lines (PFSK-1) was measured with WST-8 reagent [2-(2-methoxy-4-nitrophenyl)-3-(4-nitrophenyl)-5-(2,4-disulfophenyl)-2H-tetrazolium monosodium salt, Cell Counting Kit-8™], according to the method described in Tominaga, H. et al., Anal. Commun., 1999, 36, 47-50. Briefly, PFSK-1 was seeded in 96-well microplate at 100 μL/well with Roswell Park Memorial Institute (RPMI) 1640 medium containing 10% fetal bovine serum (FBS), and the cells were incubated in the presence of 5% carbon dioxide (CO2) at 37° C. for 24 hours. 50 μL of each test compound diluted with the medium was added to each well, and then the cells were incubated further for 3 days. After the incubation, 15 μL of Cell Counting Kit-8™ was added to each well, and the cells were incubated for one and half hours. Then, optical density (OD) values at measurement wavelength 450 nm and reference wavelength 630 nm were measured and the difference thereof was calculated. From the calculated difference, the OD value difference (at measurement wavelength 450 nm and reference wavelength 630 nm) of the control well which includes no cell was subtracted to afford cell-growth activity in each well.
The cell growth inhibitory activity of each test compound was calculated by comparing the cell-growth activity with each test compound to the cell-growth activity without any test compound (control), and each IC50 (nM) which is the concentration inhibiting 50% of the cell growth was calculated.

Read-outs that look alike come from different tables or passages of the source.

For the compound `CC1CC(=O)NN=C1c1ccc(OC[C@H]2C[C@H]2CO)c(Cl)c1F` (relative stereo) [Example 154, 6-(3-Chloro-2-fluoro-4-{[(1S*,2R*)-2-(hydroxymethyl)cyclopropyl]methoxy}phenyl)-5-methyl-4,5-dihydro-2H-pyridazin-3-one], the IC50 (Homo sapiens, 72 h) is 2.9 nM. On the same count and under the same terms, the value for `Cc1cc(C2=NNC(=O)CC2C)cc(Cl)c1OC[C@H]1C[C@H]1CO` (relative stereo) [Example 155, 6-(3-Chloro-4-{[(1 S*,2R*)-2-(hydroxymethyl)cyclopropyl]methoxy}-5-methylphenyl)-5-methyl-4,5-dihydro-2H-pyridazin-3-one] was 2.2 nM. Turning to `CC1CC(=O)NN=C1c1ccc(OC[C@H]2C[C@@H]2CO)c(Cl)c1F` (relative stereo) [Example 156, 6-(3-Chloro-2-fluoro-4-{[(1S*,2S*)-2-(hydroxymethyl)cyclopropyl]methoxy}phenyl)-5-methyl-4,5-dihydro-2H-pyridazin-3-one], the IC50 turned out to be 2.9 nM. Consider `CC1CC(=O)NN=C1c1cc(Cl)c(OCC(C)(C)O)c(Br)c1` (stereo not shown) [Example 1, 6-[3-bromo-5-chloro-4-(2-hydroxy-2-methylpropoxy)phenyl]-5-methyl-4,5-dihydro-2H-pyridazin-3-one], for which the IC50 (Homo sapiens, 72 h) was 1.1 nM. On the same count and under the same terms, the value for `CC1CC(=O)NN=C1c1cc(Cl)c(OCC(C)(C)O)c(Cl)c1` (stereo not shown) [Example 2, 6-[3,5-dichloro-4-(2-hydroxy-2-methylpropoxy)phenyl]-5-methyl-4,5-dihydro-2H-pyridazin-3-one] was 1 nM; that for `CC1CC(=O)NN=C1c1cc(F)c(OCC(C)(C)CO)c(F)c1` (stereo not shown) [Example 6, 6-[3,5-Difluoro-4-(3-hydroxy-2,2-dimethylpropoxy)phenyl]-5-methyl-4,5-dihydro-2H-pyridazin-3-one] was 3.8 nM.

Take `CC1CC(=O)NN=C1c1cc(F)c(OCC(C)(C)CO)c(Cl)c1` (stereo not shown) [Example 7, 6-[3-chloro-5-fluoro-4-(3-hydroxy-2,2-dimethylpropoxy)phenyl]-5-methyl-4,5-dihydro-2H-pyridazin-3-one]: the IC50 (Homo sapiens, 72 h) came out at 1 nM. With `Cc1c(OCC(C)(C)CO)ccc(C2=NNC(=O)CC2C)c1F` (stereo not shown) [Example 8, 6-[2-Fluoro-4-(3-hydroxy-2,2-dimethylpropoxy)-3-methylphenyl]-5-methyl-4,5-dihydro-2H-pyridazin-3-one], the IC50 (Homo sapiens, 72 h) is 7.9 nM. On the same count and under the same terms, as for `CC1CC(=O)NN=C1c1ccc(OCC(C)(C)CO)c(F)c1F` (stereo not shown) [Example 9, 6-[2,3-Difluoro-4-(3-hydroxy-2,2-dimethylpropoxy)phenyl]-5-methyl-4,5-dihydro-2H-pyridazin-3-one], the figure is 4.2 nM; as for `CC1CC(=O)NN=C1c1ccc(OCCCO)c(F)c1F` (stereo not shown) [Example 10, 6-[2,3-Difluoro-4-(3-hydroxypropoxy)phenyl]-5-methyl-4,5-dihydro-2H-pyridazin-3-one], 3.7 nM; as for `CC1CC(=O)NN=C1c1cc(F)c(OCCCO)c(Br)c1` (stereo not shown) [Example 11, 6-[3-Bromo-5-fluoro-4-(3-hydroxypropoxy)phenyl]-5-methyl-4,5-dihydro-2H-pyridazin-3-one], 3 nM. In the case of `CC1CC(=O)NN=C1c1ccc(OCCCO)c(Br)c1F` (stereo not shown) [Example 12, 6-[3-bromo-2-fluoro-4-(3-hydroxypropoxy)phenyl]-5-methyl-4,5-dihydro-2H-pyridazin-3-one], under “Homo sapiens, 72 h”, the IC50 is 1.9 nM. Still for that read-out and setting: as for `Cc1cc(C2=NNC(=O)CC2C)cc(C)c1OCCCO` (stereo not shown) [Example 14, 6-[4-(3-Hydroxypropoxy)-3,5-dimethylphenyl]-5-methyl-4,5-dihydro-2H-pyridazin-3-one], the figure is 8 nM. On the same count and under the same terms, the value for `CC1CC(=O)NN=C1c1cc(F)c(OCCCO)c(Cl)c1` (stereo not shown) [Example 15, 6-[3-Chloro-5-fluoro-4-(3-hydroxypropoxy)phenyl]-5-methyl-4,5-dihydro-2H-pyridazin-3-one] was 4 nM.

With `CC1CC(=O)NN=C1c1cc(Cl)c(OCCCO)c(Cl)c1` (stereo not shown) [Example 16, 6-[3,5-Dichloro-4-(3-hydroxypropoxy)phenyl]-5-methyl-4,5-dihydro-2H-pyridazin-3-one], the IC50 (Homo sapiens, 72 h) came to 3.6 nM. Same read-out and setting: the value for `CC1CC(=O)NN=C1c1ccc(OCCCO)c(Cl)c1F` (stereo not shown) [Example 19, 6-[3-chloro-2-fluoro-4-(3-hydroxypropoxy)phenyl]-5-methyl-4,5-dihydro-2H-pyridazin-3-one] was 1.3 nM; that for `Cc1cc(C2=NNC(=O)CC2C)cc(F)c1OCCCO` (stereo not shown) [Example 20, 6-[3-Fluoro-4-(3-hydroxypropoxy)-5-methylphenyl]-5-methyl-4,5-dihydro-2H-pyridazin-3-one] was 4.2 nM.

For the compound `Cc1c(OCCCO)ccc(C2=NNC(=O)CC2C)c1F` (stereo not shown) [Example 21, 6-[2-Fluoro-4-(3-hydroxypropoxy)-3-methylphenyl]-5-methyl-4,5-dihydro-2H-pyridazin-3-one], the IC50 (Homo sapiens, 72 h) stood at 4 nM. Same read-out and setting: the value for `Cc1cc(C2=NNC(=O)CC2C)c(F)c(Cl)c1OCCCO` (stereo not shown) [Example 22, 6-[3-chloro-2-fluoro-4-(3-hydroxypropoxy)-5-methylphenyl]-5-methyl-4,5-dihydro-2H-pyridazin-3-one] was 1.9 nM.

Turning to `CCc1c(OCCCO)ccc(C2=NNC(=O)CC2C)c1F` (stereo not shown) [Example 23, 6-[3-Ethyl-2-fluoro-4-(3-hydroxypropoxy)phenyl]-5-methyl-4,5-dihydro-2H-pyridazin-3-one], the IC50 (Homo sapiens, 72 h) amounted to 8 nM. On to `CC1CC(=O)NN=C1c1ccc(OCC(C)(C)O)c(Br)c1F` (stereo not shown) [Example 24, 6-[3-bromo-2-fluoro-4-(2-hydroxy-2-methylpropoxy)phenyl]-5-methyl-4,5-dihydro-2H-pyridazin-3-one], for which, for the setting “Homo sapiens, 72 h”, the IC50 was determined as 1.7 nM.

Turning to `CC1CC(=O)NN=C1c1cc(F)c(OCC(C)(C)O)c(Cl)c1` (stereo not shown) [Example 25, 6-[3-Chloro-5-fluoro-4-(2-hydroxy-2-methylpropoxy)phenyl]-5-methyl-4,5-dihydro-2H-pyridazin-3-one], where the note is “Homo sapiens, 72 h”, the IC50 was found to be 2.6 nM. On the same count and under the same terms, the value for `CC1CC(=O)NN=C1c1cc(F)c(OCC(C)(C)O)c(Br)c1` (stereo not shown) [Example 26, 6-[3-bromo-5-fluoro-4-(2-hydroxy-2-methylpropoxy)phenyl]-5-methyl-4,5-dihydro-2H-pyridazin-3-one] was 2 nM; that for `Cc1c(OCC(C)(C)O)ccc(C2=NNC(=O)CC2C)c1O` (stereo not shown) [Example 28, 6-[2-Hydroxy-4-(2-hydroxy-2-methylpropoxy)-3-methylphenyl]-5-methyl-4,5-dihydro-2H-pyridazin-3-one] was 6.3 nM; that for `Cc1cc(C2=NNC(=O)CC2C)cc(Cl)c1OCC(C)(C)O` (stereo not shown) [Example 31, 6-[3-chloro-4-(2-hydroxy-2-methylpropoxy)-5-methylphenyl]-5-methyl-4,5-dihydro-2H-pyridazin-3-one] was 1.1 nM. The same measure, in the same setting: as for `Cc1cc(C2=NNC(=O)CC2C)cc(C)c1OCC(C)(C)O` (stereo not shown) [Example 32, 6-[4-(2-Hydroxy-2-methylpropoxy)-3,5-dimethylphenyl]-5-methyl-4,5-dihydro-2H-pyridazin-3-one], the figure is 4 nM; as for `Cc1cc(C2=NNC(=O)CC2C)cc(F)c1OCC(C)(C)O` (stereo not shown) [Example 33, 6-[3-Fluoro-4-(2-hydroxy-2-methylpropoxy)-5-methylphenyl]-5-methyl-4,5-dihydro-2H-pyridazin-3-one], 5.1 nM.

With `Cc1c(OCC(C)(C)O)ccc(C2=NNC(=O)CC2C)c1F` (stereo not shown) [Example 34, 6-[2-Fluoro-4-(2-hydroxy-2-methylpropoxy)-3-methylphenyl]-5-methyl-4,5-dihydro-2H-pyridazin-3-one], for the setting “Homo sapiens, 72 h”, the IC50 was 5.2 nM.

(Values after patent US10611731B2, “5-methyl-6-phenyl-4,5-dihydro-2H-pyridazin-3-one derivative” (OTSUKA PHARMACEUTICAL CO., LTD., priority 2016, dated 2020).)
